According to US10221139B2, “Inhibitors of histone demethylases” (Gilead Sciences, Inc., priority 2012, dated 2019):
pIC50: −log10 of the molar value. Values belong to the compound of their own block, whether it stands above or below them.

Columns and labels:
Type in all cases: biochemical
GASC1 (KDM4C, JMJD2C) = biological target: T1, GASC1 (KDM4C, JMJD2C) (Homo sapiens, UniProt Q9H3R0); assay: Histone lysine demethylase AlphaLISA assay, GASC1; conditions: substrate BK9M3
T1 construct: 1-349; host or cells: E. coli
T1 sequence (Q9H3R0 1-349): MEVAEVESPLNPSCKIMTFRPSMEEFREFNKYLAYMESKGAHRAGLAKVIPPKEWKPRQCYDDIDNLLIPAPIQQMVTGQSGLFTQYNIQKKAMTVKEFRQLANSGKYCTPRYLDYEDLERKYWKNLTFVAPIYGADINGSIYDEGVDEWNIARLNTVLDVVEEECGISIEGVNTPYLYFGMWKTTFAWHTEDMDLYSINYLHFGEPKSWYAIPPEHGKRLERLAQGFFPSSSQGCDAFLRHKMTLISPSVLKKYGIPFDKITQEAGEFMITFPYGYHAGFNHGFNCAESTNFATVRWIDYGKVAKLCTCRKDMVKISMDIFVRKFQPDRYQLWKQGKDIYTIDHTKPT
Outline: (§1)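 Per-enzyme reaction conditions apply; each enzyme sees compound for 10 min ahead of substrate addition. Bead-based AlphaLISA detection at room temperature, protected from light, gives the IC50.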

JMJD2A (KDM4A) = biological target: T2, JMJD2A (KDM4A) (Homo sapiens, UniProt O75164); assay: Histone lysine demethylase AlphaLISA assay, JMJD2A; conditions: substrate BK9M3
T2 construct: 1-350; purchased BPS, Bioscience, US; host or cells: E. coli
T2 sequence (O75164 1-350): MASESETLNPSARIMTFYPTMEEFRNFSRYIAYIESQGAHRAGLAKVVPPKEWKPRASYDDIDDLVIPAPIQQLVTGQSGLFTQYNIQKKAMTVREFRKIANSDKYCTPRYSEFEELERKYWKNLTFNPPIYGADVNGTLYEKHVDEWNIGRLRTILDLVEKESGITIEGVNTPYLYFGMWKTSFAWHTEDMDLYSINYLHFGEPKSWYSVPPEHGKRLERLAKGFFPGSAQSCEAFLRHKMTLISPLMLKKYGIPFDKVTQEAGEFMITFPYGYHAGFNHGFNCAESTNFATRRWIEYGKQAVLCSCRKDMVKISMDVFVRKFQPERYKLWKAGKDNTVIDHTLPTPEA
Method: (§2) Example 2: Histone Lysine Demethylase AlphaLISA Assays for IC50 Value Determination
(§3) Assays are performed analogously to the protocol described by Perkin Elmer (Roy et al. Perkin Elmer Technical Note: AlphaLISA #12, April 2011).
(§4) Enzymes are dissolved in enzyme buffer and incubated for 10 min before 5 μL is added to 5 μL 3% DMSO solutions of compounds in enzyme buffer. Incubated for another 10 minutes, before 5 μL substrate solution is added and the reaction mixture is incubated at room temperature for the given period. 10 μL acceptor beads, suspended at given dilutions in Epigenetic Buffer (Perkin Elmer AL008) from stock, are added and the suspension is incubated 60 minutes in the dark at room temperature, before 10 μL suspension (at the given dilutions in Epigenetic Buffer) of streptavidin donor beads (Perkin Elmer 6760002) in Epigenetic Buffer is added. After incubation at room temperature in the dark the plates are read. Reaction conditions are seen in Table 2b.

PHF8 (KDM7) = biological target: T3, PHF8 (KDM7) (Homo sapiens, UniProt Q9UPP1); assay: Histone lysine demethylase AlphaLISA assay, PHF8; conditions: substrate BK9M2
T3 construct: KDM7 (PHF8); BRIC; 1-1322; Bac
T3 sequence (Q9UPP1 37-477 limits assumed): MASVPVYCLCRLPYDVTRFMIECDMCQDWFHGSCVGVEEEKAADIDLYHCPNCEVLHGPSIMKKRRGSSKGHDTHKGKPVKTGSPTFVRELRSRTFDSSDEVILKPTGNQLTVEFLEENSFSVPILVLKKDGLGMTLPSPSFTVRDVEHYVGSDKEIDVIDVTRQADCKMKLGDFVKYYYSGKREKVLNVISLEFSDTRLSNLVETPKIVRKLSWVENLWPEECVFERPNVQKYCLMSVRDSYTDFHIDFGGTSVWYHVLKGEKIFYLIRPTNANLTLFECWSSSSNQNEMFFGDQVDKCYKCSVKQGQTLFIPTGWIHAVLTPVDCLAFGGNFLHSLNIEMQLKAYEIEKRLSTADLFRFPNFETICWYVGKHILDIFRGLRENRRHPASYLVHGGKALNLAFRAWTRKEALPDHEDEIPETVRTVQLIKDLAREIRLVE
Method: as §2, §3, §4

UTX (KDM6A) = biological target: T4, UTX (KDM6A) (Homo sapiens, UniProt O15550); assay: Histone lysine demethylase AlphaLISA assay, UTX; conditions: substrate BK27M3
T4 construct: 919-1401; host or cells: E. coli
T4 sequence (O15550 919-1401): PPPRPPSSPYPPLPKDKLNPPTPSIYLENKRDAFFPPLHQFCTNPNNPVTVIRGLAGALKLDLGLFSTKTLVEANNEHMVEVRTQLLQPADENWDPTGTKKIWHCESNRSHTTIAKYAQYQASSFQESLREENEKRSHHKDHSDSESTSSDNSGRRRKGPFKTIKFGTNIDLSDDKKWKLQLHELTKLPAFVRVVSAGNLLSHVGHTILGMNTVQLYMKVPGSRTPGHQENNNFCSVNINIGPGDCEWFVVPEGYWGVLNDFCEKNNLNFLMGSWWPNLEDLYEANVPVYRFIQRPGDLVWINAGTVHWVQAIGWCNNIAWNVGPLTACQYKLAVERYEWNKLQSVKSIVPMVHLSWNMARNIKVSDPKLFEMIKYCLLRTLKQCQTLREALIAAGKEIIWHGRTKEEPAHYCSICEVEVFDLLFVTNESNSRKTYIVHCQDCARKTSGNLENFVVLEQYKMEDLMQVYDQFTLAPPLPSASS
Outline: as §1

FBXL10 (KDM2B) = biological target: T5, FBXL10 (KDM2B) (Homo sapiens, UniProt Q8NHM5); assay: Histone lysine demethylase AlphaLISA assay, FBXL10; conditions: substrate BH3K36M2
T5 construct: 1-650; purchased BPS, Bioscience, US; host or cells: Bac (baculovirus)
T5 sequence (Q8NHM5 1-650): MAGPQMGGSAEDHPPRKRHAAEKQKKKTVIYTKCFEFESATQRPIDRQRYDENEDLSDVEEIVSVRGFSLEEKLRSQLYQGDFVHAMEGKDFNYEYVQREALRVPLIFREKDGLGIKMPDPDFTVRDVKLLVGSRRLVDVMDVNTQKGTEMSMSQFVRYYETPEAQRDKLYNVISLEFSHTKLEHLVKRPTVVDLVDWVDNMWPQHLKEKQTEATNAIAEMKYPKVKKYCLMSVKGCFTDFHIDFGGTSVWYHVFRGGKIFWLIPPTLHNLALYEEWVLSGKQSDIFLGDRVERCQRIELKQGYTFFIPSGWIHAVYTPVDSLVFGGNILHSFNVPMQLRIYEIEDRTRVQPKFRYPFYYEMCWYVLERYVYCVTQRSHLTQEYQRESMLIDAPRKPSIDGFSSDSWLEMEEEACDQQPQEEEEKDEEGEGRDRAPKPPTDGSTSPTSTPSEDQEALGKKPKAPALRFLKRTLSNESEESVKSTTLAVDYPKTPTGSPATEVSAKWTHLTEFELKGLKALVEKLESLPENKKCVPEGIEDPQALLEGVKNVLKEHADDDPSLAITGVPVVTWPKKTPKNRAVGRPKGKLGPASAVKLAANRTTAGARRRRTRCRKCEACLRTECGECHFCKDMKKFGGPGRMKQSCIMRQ
Outline: as §1

Compound: 2-({[(1R)-2-hydroxy-1-{methyl[3-(1-methyl-1H-imidazol-2-yl)propyl]carbamoyl}ethyl]amino}methyl)pyridine-4-carboxylic acid [#37]
- pIC50 (GASC1 (KDM4C, JMJD2C)): > 7.00
- pIC50 (FBXL10 (KDM2B)): ≤ 6.00
- pIC50 (JMJD2A (KDM4A)): > 7.00
- pIC50 (PHF8 (KDM7)): ≤ 6.00
- pIC50 (UTX (KDM6A)): ≤ 6.00

Compound: O=C(O)c1ccnc(CNCC(=O)N2CCCC2)c1 [#13, 2-({[2-oxo-2-(pyrrolidin-1-yl)ethyl]amino}methyl)pyridine-4-carboxylic acid]
- pIC50 (GASC1 (KDM4C, JMJD2C)): > 7.00
- pIC50 (FBXL10 (KDM2B)): > 7.00
- pIC50 (JMJD2A (KDM4A)): > 7.00
- pIC50 (PHF8 (KDM7)): 6.00 to 7.00
- pIC50 (UTX (KDM6A)): ≤ 6.00

Compound: CC(C)=CCCC(C)CCN1CCC(NC(=O)CNCc2cc(C(=O)O)ccn2)C1 (centres unmarked) [#35, 2-{[({[1-(3,7-dimethyloct-6-en-1-yl)pyrrolidin-3-yl]carbamoyl}methyl)amino]methyl}pyridine-4-carboxylic acid]
- pIC50 (GASC1 (KDM4C, JMJD2C)): > 7.00
- pIC50 (FBXL10 (KDM2B)): 6.00 to 7.00
- pIC50 (JMJD2A (KDM4A)): > 7.00
- pIC50 (PHF8 (KDM7)): 6.00 to 7.00
- pIC50 (UTX (KDM6A)): ≤ 6.00

Now from value to compound:

- pIC50 (GASC1 (KDM4C, JMJD2C)): > 7.00
- pIC50 (JMJD2A (KDM4A)): > 7.00
- pIC50 (PHF8 (KDM7)): ≤ 6.00
- pIC50 (UTX (KDM6A)): ≤ 6.00
Compound: CCCCN1CCCC1CCNCc1cc(C(=O)O)ccn1 (centres unmarked) [#34, 2-({[2-(1-butylpyrrolidin-2-yl)ethyl]amino}methyl)pyridine-4-carboxylic acid]

- pIC50 (GASC1 (KDM4C, JMJD2C)): > 7.00
- pIC50 (FBXL10 (KDM2B)): 6.00 to 7.00
- pIC50 (JMJD2A (KDM4A)): > 7.00
- pIC50 (PHF8 (KDM7)): 6.00 to 7.00
- pIC50 (UTX (KDM6A)): ≤ 6.00
Compound: CCN(CCN(C)C)C(=O)CNCc1cc(C(=O)O)ccn1 [#49, 2-{[({[2-(dimethylamino)ethyl](ethyl)carbamoyl}methyl)amino]methyl}pyridine-4-carboxylic acid]

- pIC50 (GASC1 (KDM4C, JMJD2C)): > 7.00
- pIC50 (FBXL10 (KDM2B)): > 7.00
- pIC50 (JMJD2A (KDM4A)): > 7.00
- pIC50 (PHF8 (KDM7)): > 7.00
Compound: COc1ccccc1CN1CCC(NC(=O)CNCc2cc(C(=O)O)ccn2)CC1 [#29, 2-({[({1-[(2-methoxyphenyl)methyl]piperidin-4-yl}carbamoyl)methyl]amino}methyl)pyridine-4-carboxylic acid]

- pIC50 (GASC1 (KDM4C, JMJD2C)): > 7.00
- pIC50 (FBXL10 (KDM2B)): > 7.00
- pIC50 (PHF8 (KDM7)): 6.00 to 7.00
- pIC50 (UTX (KDM6A)): ≤ 6.00
Compound: CCCCN(C)C(=O)CNCc1cc(C(=O)O)ccn1 [#14, 2-[({[butyl(methyl)carbamoyl]methyl}amino)methyl]pyridine-4-carboxylic acid]
